Experimental data published in article PMC12466090 (Photochemistry and Photobiology, 2025).

Assays:
[1] = in water; standard of the relative method; no reference given; cited from earlier work
[2] = UV-VIS absorption / fluorescence spectroscopy; type: physicochemical; settings: fluorescence spectrum in washed cells, excitation at 600 nm (Figure S3)

CN(C)c1ccc2nc3ccc(=[N+](C)C)cc-3sc2c1 [methylene blue]
singlet oxygen quantum yield (ΦΔ) of the reference standard [1]: 0.52

cRGDfK (Arg–Gly–Asp–D–Phe–Lys) (head to tail) [SiPc‐2c(RGDfK)]
form bound to cells (fluorescence spectrum after uptake) [2]: monomeric form is bound to cells
